From patent publication US20240392302A1, “METHOD FOR DETECTING AND QUANTIFYING RNA” (FLUORESCENCE DIAGNOSIS (SHANGHAI) BIOTECH COMPANY LTD., priority 2021, published 2024)

Tested on: F30-N16-1 RNA aptamer molecules
Assay: Binding of F30-N16-1 RNA aptamer molecules with different fluorescent molecules (fluorescence spectrum, activation multiple)
Assay type: biochemical
Settings: for Maximum emission peak (nm) / Maximum excitation peak (nm): complex with F30-N16-1; for Activation Multiple: fluorophore with F30-N16-1
Protocol: Nucleic acid aptamer molecules of N16 or N16 mutants were prepared by using the commonly-used experimental method (I), 2.5 μM of nucleic acid aptamer molecules and 0.5 μM of fluorophore molecules were incubated in a detection buffer (40 mM of HEPES, pH 7.4, 125 mM of KCl, 5 mM of MgCl2, 5% DMSO), and the maximum excitation peak and the maximum emission peak of the fluorescence of the nucleic acid aptamer-fluorophore molecular complex were detected with Synergy Neo2 multifunctional enzyme-labeler. Synergy Neo2 multifunctional enzyme-labeler was used again to detect fluorescence intensity of the nucleic acid aptamer-fluorophore molecular complex under its maximum excitation and emission conditions, the control sample ([…] of fluorophore molecules without nucleic acid aptamer) was also measured under the same conditions, and the ratio of fluorescence intensity was calculated. For example, as for fluorescence of the complex formed by 2.5 μM of N16-1 nucleic acid aptamer and 0.5 μM of I-5-14 fluorophore molecules, the maximum excitation peak is 512 nm and the maximum emission peak is 574 nm. It was detected by the Synergy Neo2 multifunctional enzyme-labeler that the fluorescence intensity of the complex at an excitation condition of 512±10 nm and an emission condition of 574 nm±10 nm was 49,088, while the fluorescence intensity of the control (0.5 μM of I-5-14 fluorophore molecules) under the same detection conditions was 399, so the activation multiple of N16-1 nucleic acid aptamer to I-5-14 fluorophore molecules was 123.
F30-N16-1 RNA aptamer molecules were prepared by using the commonly-used experimental method (I), and were used for detecting basic properties, including fluorescence spectrum and fluorescence activation multiple, of the binding of I-5-14 analogues with N16.

Row | Compound | Maximum emission peak (nm) | Maximum excitation peak (nm) | Activation Multiple
1 | CCN1C(=O)S/C(=C\c2ccc(N(C)CCO)s2)C1=O [I-5-5] | 518 nm | 487 nm | 11
2 | CC1=CC(C)(C)N(C)c2ccc(/C=C3\SC(=O)NC3=S)cc21 [I-5-42] | 627 nm | 527 nm | 11
3 | O=C1NC(=O)/C(=C/c2cc3c4c(c2)CCCN4CCC3)S1 [I-5-49] | 539 nm | 469 nm | 1025
4 | CN(C)c1cc2sc(/C=C3\SC(=S)NC3=O)cc2s1 [I-5-51] | 654 nm | 582 nm | 1125
5 | O=C1NC(=S)S/C1=C\c1cc2c3c(c1)CCCN3CCC2 [I-5-47] | 607 nm | 529 nm | 245
6 | CN(CCO)c1cc2sc(/C=C3\OC(=O)NC3=O)cc2s1 [I-5-55] | 627 nm | 513 nm | 14
7 | CN(CCO)c1ccc(-c2ccc(/C=C3\SC(=O)NC3=O)s2)s1 [I-5-62] | 689 nm | 529 nm | 256
8 | CN1C(=O)S/C(=C\c2nc3ccc(N(C)CCO)cc3s2)C1=O [I-5-71] | 627 nm | 471 nm | 6
9 | CN(C)c1ccc(/C=C2\SC(=O)NC2=S)s1 [I-5-8] | 582 nm | 554 nm | 15
10 | CN1CCOc2cc(/C=C3\SC(=S)NC3=O)ccc21 [I-5-37] | 603 nm | 497 nm | 256
11 | CN(C)c1ccc(/C=C2\SC(=S)N(N)C2=O)s1 [I-5-9] | 578 nm | 552 nm | 17
12 | CCN1C(=O)O/C(=C\c2ccc(N(C)CCO)cc2)C1=O [I-5-13] | 492 nm | 393 nm | 8
13 | CN(C)c1ccc(/C=C2\NC(=S)NC2=O)cc1 [I-5-24] | 543 nm | 473 nm | 7
14 | S=C1NC(=S)/C(=C/c2cc3c4c(c2)CCCN4CCC3)S1 [I-5-48] | 675 nm | 579 nm | 6
15 | CN1C(=O)/C(=C/c2cc3sc(N(CCO)CCO)cc3s2)NC1=S [I-5-60] | 626 nm | 552 nm | 8
16 | CN(CCO)c1ccc2cc(/C=C3\SC(=S)NC3=O)sc2c1 [I-5-64] | 665 nm | 522 nm | 12
17 | CN(CCO)c1ccc(/C=C2\SC(=O)NC2=O)cc1 [I-5-17] | 506 nm | 445 nm | 105
18 | CN1CCCc2cc(/C=C3\SC(=O)NC3=O)ccc21 [I-5-39] | 509 nm | 429 nm | 14
